{
  "source": "patent US10149481B2",
  "about": "“Arthropod control compositions and methods” (Tyratech, Inc., priority 2012, dated 2018)",
  "origin": "cited, not measured here",
  "key": {"D. variabilis": {"test_system": "D. variabilis", "details": "2 h after application, unformulated (Kimps et al. 2011)"}, "[1]": {"details": "for mammalian toxicity: Nentwig 2003, Frances 2007b, Moore and Debboun 2007"}},
  "data": [
    {"compound": "CCCCCCCCCC(C)=O", "note": "[2-undecanone]", "values": [
      {"measurement": "repellency", "setting": "D. variabilis", "result": 74, "unit": "%"}
    ]},
    {"compound": "Picaridin", "values": [
      {"measurement": "mammalian toxicity", "setting": "[1]", "result": "low mammalian toxicity"}
    ]},
    {"compound": "CC1CCC(C(C)(C)O)C(O)C1", "note": "(centres unmarked) [PMD, p-menthane-3,8-diol]", "values": [
      {"measurement": "eye irritation", "setting": "[1]; Strickman 2007", "result": "exceptionally irritating to the eyes"},
      {"measurement": "rat oral and rabbit dermal toxicity", "setting": "[1]; Strickman 2007", "result": "low"}
    ]},
    {"compound": "CCCCN(CCC(=O)OCC)C(C)=O", "note": "[IR3535, 3-(N-Butyl-N-acetyl)-amino propionic acid ethyl ester]", "values": [
      {"measurement": "mammalian toxicity", "setting": "[1]", "result": "low mammalian toxicity"}
    ]}
  ]
}
